In patent US9078874B2, “Composition and method for treating cognitive impairments in down syndrom subjects” (Centre National De La Recherche Scientifique—CNRS, priority 2009, dated 2015):

Assays:
[1] = test system: euploid and Ts65Dn mice; assay: Pro-convulsant effects after pentylenetetrazol (45 mg/kg); type: in vivo; details: mouse, in vivo, 50 min
Method: For testing the pro-convulsant effects of α5IA, a sub-convulsant dose of pentylenetetrazole (45 mg/kg i.p.) that induces myoclonic convulsions in about 50% of mice was injected i.p. 20 min after injection of α5IA (50 mg/kg) or placebo.
The proconvulsant action of the α5IA was measured after injection of a subconvulsive dose of pentylenetetrazole. Mice were injected with either vehicle or the α5IA (50 mg/kg i.p) and 20 min later they received an intraperitoneal injection of 45 mg/kg of pentylenetetrazole. […] Six to 7 mice were used for each condition. The latency to the first myoclonic jerk episode and the convulsion grade were recorded during a 1200-s period of observation. Four grades were empirically determined: Grade 0: no effect; grade 1: tail up and curved; grade 2: reversed tail and convulsive shivers; grade 3: myoclonic convulsions.
We then tested the proconvulsant effect of α5IA by injecting it (50 mg/kg) 20 min before a sub-convulsant dose of pentylenetetrazol (45 mg/kg) that induces myoclonic convulsions in about 50% of mice.

[2] = test system: euploid and Ts65Dn mice; assay: Morris water maze (MWM) spatial reference memory; type: in vivo
Method: Spatial reference memory was evaluated using the standard Morris water maze task. The maze was similar to the one described above (dose-response effects of α5IA). The platform was submerged 1 cm below water surface in the center of one of the pool quadrants. During spatial allocentric training the non-visible platform remained at a constant position throughout the trials with numerous external visual indices available to facilitate formation of spatial cognitive maps.
A total of 32 mice (16 euploid and 16 Ts65Dn mice) were used. Animals were randomly and equally distributed into 4 groups. Each day mice were injected with placebo or α5IA (5 mg/kg) 30 min before the onset of behavioral testing.
On the first day, mice were submitted to a single habituation trial with the non-visible platform available. On the following six days, spatial allocentric training consisted in daily sessions (2 trials per session). Start positions varied pseudo-randomly among the four cardinal points. Mean inter-trial interval was 2 hours. During the habituation and spatial training phases each trial ended when the animal reached the platform. A 90 sec cut-off was used, after which mice were manually guided to the platform. Once on the platform, animals were given a 20 sec rest before being replaced in their cage. Twenty-four hours after the last training session, a probe trial was performed (Day 8) during which the platform was removed and mice allowed to freely navigate for 60 sec.
Following evaluation of spatial learning and memory skills, visual ability of mice was controlled using a non-spatial training procedure. Platform location was directly cued by a white styrene ball placed 12 cm above water surface and access to external indices was prevented by a black curtain surrounding the pool. Testing in this visually guided navigation task consisted of 4 daily sessions for 4 consecutive days as described above.
All data were collected, analyzed and stored using a video-tracking system (Ethovision, Noldus, Wageningen, The Netherlands).
During probe trial one supplementary (euploid) mouse was removed from analysis for the same reason.

[3] = test system: fos protein; assay: Cerebral fos immunoreactivity after object recognition acquisition; type: in vivo, mice; details: 5 mg/kg i.p.
Method: The mechanism of action of α5IA was investigated by quantifying neuronal activity by measuring production of fos protein in mice subjected to an object recognition task (exploration of a new environment).
The protocol that was used involved treating mice (placebo or drug). 30 minutes later, the mice were subjected to exploring a new environment, a situation in which the animal acquires and stores information spontaneously. This behavioral stimulation activates c-fos gene, and the expression product of this gene (the Fos protein) is then detected by immunohistochemistry and quantified using dedicated image analysis software. […]
Image analysis was performed as follows: regions of interest (ROIs) were photographed using an Olympus BX61 microscope (x10 objective) and fos immunostaining was quantified using a dedicated image processing software which automatically calculated the proportion of fos-stained tissue (p=stained area/total area), providing an unbiased stereological measurement of fos immunoreactivity. Four ROIs were analyzed: posterior cingulate cortex, perirhinal cortex, dentate gyms and CA1 field of the hippocampus. Each ROI was sampled on several serial sections and results were then averaged to give a reliable quantitative evaluation of local fos immunostaining.

[4] = test system: GABAA receptors containing either an α1, α2, α3 or α5 subunit; details: cited from earlier work
[5] = Ts65Dn mice, 5 mg/kg i.p. 30 min before each session

Cc1cc(-c2nnc3c4ccccc4c(OCc4cn(C)nn4)nn23)no1 [α5IA, 3-(5-methylisoxazol-3-yl)-6-[(1-methyl-1,2,3-triazol-4-yl)methyloxy]-1,2,4-triazolo[3,4-a]phthalazine]
Convulsant mice rate ([1]; Ts65Dn): 4/7
Convulsant mice rate ([1]; euploid): 3/6
hits (reaching the platform before 90 sec) [2, 5]: reversed after treatment
learning index [2, 5]: corrected by treatment
learning performance in the MWM ([2]; control euploid mice, 5 mg/kg): did not observe a significant promnesiant effect
thigmotaxy, significance of the effect ([2]; euploid mice (p=0.06), 5 mg/kg): just failed to reach statistical significance
retention performance during the probe test (24 hours) ([2]; euploid or Ts65Dn mice, 5 mg/kg): did not significantly increase retention performance
performance in the cued (visible platform) version of the MWM ([2]; p>0.16, 5 mg/kg): did not find any effect
thigmotaxy (wall-seeking behavior) ([2]; particularly in Ts65Dn mice (p<0.001), 5 mg/kg): strongly decreased
fos immunoreactivity relative to placebo-treated littermates ([3]; all brain regions sampled, except the dentate gyrus): significant increase of fos
neuronal activity (fos) in the dentate gyrus ([3]; dentate gyrus): not significantly affected
binding affinity at the benzodiazepine binding site [4]: equal affinity
